# Results: US20050282755A1, “Compositions having antimicrobial activity and uses thereof” (priority 2004, published 2005)
# Starred links: 1 amine or outer side, 2 acyl side, 3 side chain; linkers in the order of their positions; H or OH if unused. Non-standard residues stand in square brackets, D forms with d. Residues, ends and D or L forms follow the SMILES beside them. *: point of attachment. 1Nal = N[C@@H](Cc1cccc2ccccc12)C(=O)O; Ethylenediamine = C(CN[*:2])N[*:1]; Lauroyl = CCCCCCCCCCCC(=O)*; Decanoyl = CCCCCCCCCC(=O)*; Octanoyl = CCCCCCCC(=O)*
# Columns and labels:
# Format in all cases: cell-based
# [1] = tested on: Staphylococcus aureus ATCC 29213; experiment: MIC, NCCLS M7-A6 broth microdilution, cation-adjusted Mueller Hinton broth (Table 9, no superscript); conditions: ATCC 29213
# Summary of the method: (§1)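 Values come from a broth microdilution assay run in cation-adjusted Mueller Hinton broth with an inoculum of 5×10^5 to 1×10^6 CFU/milliliter, incubated overnight at 37° C and read as absence of visible turbidity.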
# [2] = tested on: Propionibacterium acnes ATCC 6919; experiment: MIC, agar dilution method NCCLS M11-A6, Brucella agar, anaerobic (Table 9, superscript c); conditions: ATCC 6919
# Procedure: A bacterial suspension was prepared to allow for a final inoculum on the plate of 1.5×10^8 CFU/milliliter. After the suspension absorbed into the agar surface, the plates were incubated for 48-96 hours at 37° C. in a GasPak anaerobic chamber. The lowest concentration of peptide that contained no colony growth on the agar plate was determined as the MIC. MIC values that utilized this method of MIC determination are indicated in Table 9 with a superscript letter “c.”
# [3] = tested on: Pseudomonas aeruginosa ATCC 27853; experiment: MIC, NCCLS M7-A6 broth microdilution (Table 9, no superscript); conditions: ATCC 27853
# Summary of the method: as §1
# [4] = tested on: Staphylococcus epidermidis ATCC 12228; experiment: as above; conditions: ATCC 12228
# Summary of the method: as §1
# [5] = tested on: Escherichia coli ATCC 25922; experiment: as above; conditions: ATCC 25922
# Summary of the method: as §1
# Salmonella dublin (Lane) = experiment: as above
# Summary of the method: as §1
SMILES,MIC S. aureus [1] [µg/mL],MIC P. acnes [2] [c ug/mL],MIC P. aeruginosa [3] [µg/mL],MIC S. epidermidis [4] [µg/mL],MIC E. coli [5] [µg/mL],MIC S. dublin (Salmonella dublin (Lane)) [µg/mL]
"CCCCCCCCCCCC(=O)N[C@@H](C(=O)N[C@H](CCCNC(=N)N)C(=O)N[C@@H](C(=O)N[C@H](CO)C(=O)N[C@H](CCCNC(=N)N)C(=O)N[C@@H](C(=O)NCC(=O)N[C@H](CCCNC(=N)N)C(=O)N[C@H](CO)C(=O)N[C@H](CCCNC(=N)N)C(=O)N[C@H](Cc1c[nH]c2ccccc12)C(=O)N[C@H](CCCNC(=N)N)C(=O)N[C@H](CC(=O)O)C(=O)N[C@H](Cc1c[nH]c2ccccc12)C(=O)N[C@H](CO)C(=O)N[C@H](CCCNC(=N)N)C(=O)N[C@H](CC(N)=O)C(=O)N[C@H](Cc1ccccc1)C(=O)N[C@H](CCSC)C(=O)N[C@H](CCCNC(=N)N)C(=O)N[C@H](C)C(=O)N[C@H](C)C(=O)N[C@@H](CCCCN)C(N)=O)[C@H](C)O)C(C)C)[C@H](C)O [Peptide 80, Lauryl-trvsrtgrsrwrdwsrnfmraaK-NH2] (Lauroyl-[dT][dR][dV][dS][dR][dT]G[dR][dS][dR][dW][dR][dD][dW][dS][dR][dN][dF][dM][dR][dA][dA]K-NH2)",16,>64,>64,2,32,16
"CCCCCCCCCCCC(=O)N[C@@H](CCCNC(=N)N)C(=O)N[C@@H](Cc1c[nH]c2ccccc12)C(=O)N[C@@H](CCCNC(=N)N)C(=O)N[C@@H](CC(=O)O)C(=O)N[C@H](C(=O)N[C@@H](C)C(=O)N[C@@H](CCCNC(=N)N)C(N)=O)C(C)C [Peptide 105, Lauryl-RWRDVAR-NH2] (Lauroyl-RWRDVAR-NH2)",16,32,32,8,32,>32
"CCCCCCCCCCCC(=O)N[C@@H](Cc1c[nH]c2ccccc12)C(=O)N[C@@H](CCCNC(=N)N)C(=O)N[C@@H](CC(=O)O)C(=O)N[C@H](C(=O)N[C@@H](C)C(=O)N[C@@H](CCCNC(=N)N)C(=O)N[C@@H](CC(N)=O)C(N)=O)C(C)C [Peptide 106, Lauryl-WRDVARN-NH2] (Lauroyl-WRDVARN-NH2)",8,>64,>64,16,>64,>64
"CCCCCCCCCCCC(=O)N[C@@H](CCCNC(=N)N)C(=O)N[C@@H](Cc1c[nH]c2ccccc12)C(=O)N[C@@H](CCCNC(=N)N)C(=O)N[C@@H](CC(=O)O)C(=O)N[C@H](C(=O)N[C@@H](C)C(=O)N[C@@H](CCCNC(=N)N)C(=O)N[C@@H](CC(N)=O)C(=O)N[C@@H](Cc1ccccc1)C(=O)N[C@@H](CCSC)C(=O)N[C@@H](CCCNC(=N)N)C(N)=O)C(C)C [Peptide 113, Lauryl-RWRDVARNFMR-NH2] (Lauroyl-RWRDVARNFMR-NH2)",4,>64,>64,2,8,16
"CCCCCCCCCCCC(=O)N[C@@H](CCCNC(=N)N)C(=O)N[C@@H](CO)C(=O)N[C@@H](CCCNC(=N)N)C(=O)N[C@@H](Cc1cccc2ccccc12)C(=O)N[C@@H](CCCNC(=N)N)C(=O)N[C@@H](CC(=O)O)C(=O)N[C@H](C(=O)N[C@@H](C)C(=O)N[C@@H](CCCNC(=N)N)C(=O)N[C@@H](CC(N)=O)C(=O)N[C@@H](Cc1ccccc1)C(=O)N[C@@H](CCSC)C(=O)N[C@@H](CCCNC(=N)N)C(N)=O)C(C)C [Peptide 149, Lauryl-RSRZRDVARNFMR-NH2 Z = 1-naphthylalanine] (Lauroyl-RSR[1Nal]RDVARNFMR-NH2)",16,32,>64,4,64,32
"CCCCCCCCCCCC(=O)N[C@@H](CCCNC(=N)N)C(=O)N[C@@H](CO)C(=O)N[C@@H](CCCNC(=N)N)C(=O)N[C@@H](Cc1c[nH]c2ccccc12)C(=O)N[C@@H](CCCNC(=N)N)C(=O)N[C@@H](CC(=O)O)C(=O)N[C@@H](Cc1cccc2ccccc12)C(=O)N[C@@H](C)C(=O)N[C@@H](CCCNC(=N)N)C(=O)N[C@@H](CC(N)=O)C(=O)N[C@@H](Cc1ccccc1)C(=O)N[C@@H](CCSC)C(=O)N[C@@H](CCCNC(=N)N)C(N)=O [Peptide 150, Lauryl-RSRWRDZARNFMR-NH2 Z = 1-naphthylalanine] (Lauroyl-RSRWRD[1Nal]ARNFMR-NH2)",8,>64,>64,4,64,32
"CCCCCCCCCCCC(=O)N[C@@H](CCCNC(=N)N)C(=O)N[C@@H](Cc1c[nH]c2ccccc12)C(=O)N[C@@H](CCCNC(=N)N)C(=O)N[C@@H](CC(=O)O)C(=O)N[C@H](C(=O)N[C@@H](C)C(=O)N[C@@H](CCCNC(=N)N)C(=O)N[C@@H](CC(N)=O)C(=O)N[C@@H](Cc1ccccc1)C(=O)N[C@@H](CC(C)C)C(=O)N[C@@H](CCCNC(=N)N)C(N)=O)C(C)C [Peptide 163, Lauryl-RWRDVARNFLR-NH2] (Lauroyl-RWRDVARNFLR-NH2)",4,>64,>64,8,16,8
"CCCCCCCC(=O)NCCNC(=O)[C@H](CCCNC(=N)N)NC(=O)[C@H](CC(C)C)NC(=O)[C@H](Cc1ccccc1)NC(=O)[C@H](CC(N)=O)NC(=O)[C@H](CCCNC(=N)N)NC(=O)[C@H](C)NC(=O)[C@@H](NC(=O)[C@H](CC(=O)O)NC(=O)[C@H](CCCNC(=N)N)NC(=O)[C@H](Cc1c[nH]c2ccccc12)NC(=O)[C@H](CCCNC(=N)N)NC(=O)[C@H](CO)NC(=O)[C@@H](N)CCCNC(=N)N)C(C)C [Peptide 169, H2N-RSRWRDVARNFLR-Ethylamidooctanyl] (H-RSRWRDVARNFLR-{Ethylenediamine-Octanoyl}; C-terminus assumed)",4,64,4,1,2,8
"CCCCCCCCCC(=O)N[C@@H](CCCNC(=N)N)C(=O)N[C@@H](CO)C(=O)N[C@@H](CCCNC(=N)N)C(=O)N[C@@H](Cc1c[nH]c2ccccc12)C(=O)N[C@@H](CCCNC(=N)N)C(=O)N[C@@H](CC(=O)O)C(=O)N[C@H](C(=O)N[C@@H](C)C(=O)N[C@@H](CCCNC(=N)N)C(=O)N[C@@H](CC(N)=O)C(=O)N[C@@H](Cc1ccccc1)C(=O)N[C@@H](CCSC)C(=O)N[C@@H](CCCNC(=N)N)C(N)=O)C(C)C [Peptide 204, Decanyl-RSRWRDVARNFMR-NH2] (Decanoyl-RSRWRDVARNFMR-NH2)",8,>64,32,2,8,32
"CCCCCCCC(=O)N[C@H](CCCNC(=N)N)C(=O)N[C@H](CO)C(=O)N[C@H](CCCNC(=N)N)C(=O)N[C@H](Cc1c[nH]c2ccccc12)C(=O)N[C@H](CCCNC(=N)N)C(=O)N[C@H](CC(=O)O)C(=O)N[C@@H](C(=O)N[C@H](C)C(=O)N[C@H](CCCNC(=N)N)C(=O)N[C@H](CC(N)=O)C(=O)N[C@H](Cc1ccccc1)C(=O)N[C@H](CCSC)C(=O)N[C@H](CCCNC(=N)N)C(N)=O)C(C)C [Peptide 207, Octyl-rsrwrdvarnfmr-NH2] (Octanoyl-[dR][dS][dR][dW][dR][dD][dV][dA][dR][dN][dF][dM][dR]-NH2)",16,16,32,4,32,64
"CCCCCCCCCC(=O)N[C@H](CCCNC(=N)N)C(=O)N[C@H](CO)C(=O)N[C@H](CCCNC(=N)N)C(=O)N[C@H](Cc1c[nH]c2ccccc12)C(=O)N[C@H](CCCNC(=N)N)C(=O)N[C@H](CC(=O)O)C(=O)N[C@@H](C(=O)N[C@H](C)C(=O)N[C@H](CCCNC(=N)N)C(=O)N[C@H](CC(N)=O)C(=O)N[C@H](Cc1ccccc1)C(=O)N[C@H](CCSC)C(=O)N[C@H](CCCNC(=N)N)C(N)=O)C(C)C [Peptide 208, Decanyl-rsrwrdvarnfmr-NH2] (Decanoyl-[dR][dS][dR][dW][dR][dD][dV][dA][dR][dN][dF][dM][dR]-NH2)",4,2,>64,>64,>64,8
